Entries after “also recorded” stand apart in the source; their conditions may differ. Counter-ions that a name gives are not always drawn. Square brackets hold non-standard residues; d marks the D form. Peptide text beside a SMILES is read from it. * marks the point of attachment. pY = N[C@@H](Cc1ccc(OP(=O)(O)O)cc1)C(=O)O; Hexanoyl = CCCCCC(=O)*; Ahx = NCCCCCC(=O)O

Common to all, as to assay type: physicochemical
The nature of data set [1]: Sauna experiments (solvent vapour in sealed vial), XRPD analysis. The following applies: for XRPD after sauna experiments: various solvents, 1 or 7 days. The protocol: (§1) Sample is applied directly on a silicon plate holder. The X-ray powder diffraction pattern was measured with Philips X′Pert PRO X-ray powder diffractometer, equipped with Cu irradiation source=1.54184 Å (Ångström), X'Celerator (2.022° 2θ) detector. Scanning parameters: angle range: 3-40 deg., step size 0.0167, time per step 37 s, continuous scan.
(§2) Samples of Fosgonimeton mono sodium salt form N2 were subjected to slurry and to sauna conditions in various conditions. In the slurry experiments, 50 mg of the sample is placed in a 2 mL glass vial with 0.5 mL of solvent. Obtained suspension is stirred at ambient temperature for 1 or 7 days. XRPD analysis is performed on crystalline material after filtration. In the sauna experiments, 50 mg of crystalline material is placed in an Eppendorf tube. 0.5 mL of solvent is placed in a sealed 10 mL glass vial, along with Eppendorf tube. Crystalline material is checked by XRPD analysis after 1 or 7 days.
as §2, with “N5” for “N2”
as §2, with “potassium” for “sodium”, “K1” for “N2”
(§3) Samples of Fosgonimeton form 1 were subjected to slurry and to Sauna conditions in various conditions. In the slurry experiments, 50 mg of the sample is placed in a 2 mL glass vial with 0.5 mL of solvent. Obtained suspension is stirred at ambient temperature for 1 or 7 days. XRPD analysis is performed on crystalline material after filtration. In the sauna experiments, 50 mg of crystalline material is placed in an Eppendorf tube. 0.5 mL of solvent is placed in a sealed 10 mL glass vial, along with Eppendorf tube. Crystalline material is checked by XRPD analysis after 1 or 7 days.

Data set [2] is described as follows: Pressure stress test (Specac Hydraulic Press), XRPD analysis. To be noted: 2 tons/2 minutes. The protocol: as §1
A sample of Fosgonimeton mono sodium salt form N2 was subjected to a pressure of 2 ton (Specac Hydraulic Press, set to 2 tons).
A sample of Fosgonimeton mono sodium salt form N5 was subjected to a pressure of 2 ton (Specac Hydraulic Press, set to 2 tons).
A sample of Fosgonimeton mono potassium salt form K1 was subjected to a pressure of 2 tons (Specac Hydraulic Press, set to 2 tons).
A sample of Fosgonimeton form 1 was subjected to a pressure of 2 tons (Specac Hydraulic Press, set to 2 tons).

The nature of data set [3]: Heating stress test, XRPD analysis. To be noted: 100° C./60 minutes. The protocol:
as §1
A sample of Fosgonimeton mono sodium salt form N2 was subjected to heating to 100° C. for 60 minutes.
A sample of Fosgonimeton mono sodium salt form N5 was subjected to heating to 100° C. for 60 minutes.
A sample of Fosgonimeton mono potassium salt form K1 was subjected to heating to 100° C. for 60 minutes.
A sample of Fosgonimeton form 1 was subjected to heating to 100° C. for 60 minutes.

Data set [4] can be described thus: Slurry experiments in solvent, XRPD analysis after filtration. To be noted: for XRPD after slurry experiments: various solvents, ambient temperature, 1 or 7 days. The protocol: as §1, §2
as §2, with “N5” for “N2”
as §2, with “potassium” for “sodium”, “K1” for “N2”
as §3

In the case of `CCCCCC(=O)N[C@@H](Cc1ccc(OP(=O)(O)O)cc1)C(=O)N[C@H](C(=O)NCCCCCC(N)=O)[C@@H](C)CC` [Fosgonimeton mono potassium salt form K1, Fosgonimeton mono potassium salt] (Hexanoyl-[pY]-Ile-[Ahx]-NH2), the “XRPD after Sauna” value is on record as “No polymorphic change” in data set [1] (2-Propanol/20-25° C./7 days); “No polymorphic change” in data set [1] (Acetone/20-25° C./7 days); “No polymorphic change” in data set [1] (Ethanol, 96%/20-25° C./7 days); “No polymorphic change” in data set [1] (Ethyl acetate/20-25° C./7 days); “No polymorphic change” in data set [1] (Water/20-25° C./7 days). Besides, in data set [1], the “XRPD after sauna experiments” value is “no change in the starting material”. For the same compound, the “XRPD after Pressure” value in data set [2] (mono potassium salt) is “no polymorphic conversion; also recorded: No polymorphic change”. The “XRPD after Heating” value in data set [3] (mono potassium salt) is reported as “no polymorphic conversion; also recorded: No polymorphic change”. Moreover, the “XRPD after Slurry” value is recorded as “No polymorphic change” in data set [4] (2-Propanol/20-25° C./7 days); “No polymorphic change” in data set [4] (Acetone/20-25° C./7 days); “No polymorphic change” in data set [4] (Ethanol, 96%/20-25° C./7 days); “No polymorphic change” in data set [4] (Ethyl acetate/20-25° C./7 days). In data set [4], the “XRPD after slurry experiments” value is “no change in the starting material”.

For `CCCCCC(=O)N[C@@H](Cc1ccc(OP(=O)(O)O)cc1)C(=O)N[C@H](C(=O)NCCCCCC(N)=O)[C@@H](C)CC` [Fosgonimeton mono sodium salt form N2, Fosgonimeton mono sodium salt] (Hexanoyl-[pY]-Ile-[Ahx]-NH2), the “XRPD after Sauna” value in data set [1] (2-Propanol/20-25° C./7 days) is “No polymorphic change”; in data set [1] (Acetone/20-25° C./7 days), “No polymorphic change”; in data set [1] (Ethanol, 96%/20-25° C./7 days), “No polymorphic change”; in data set [1] (Ethyl acetate/20-25° C./7 days), “No polymorphic change”; in data set [1] (Water/20-25° C./7 days) it was “No polymorphic change”. Besides, the “XRPD after sauna experiments” value in data set [1] is “no change in the starting material”. Besides, in data set [2] (mono sodium salt), the “XRPD after Pressure” value is on record as “no polymorphic conversion; also recorded: No polymorphic change”. In addition, the “XRPD after Heating” value in data set [3] (mono sodium salt) is “no polymorphic conversion; also recorded: No polymorphic change”. For the same compound, the “XRPD after Slurry” value in data set [4] (2-Propanol/20-25° C./1 day) is listed as “No polymorphic change”; in data set [4] (Acetone/20-25° C./1 day) it was “No polymorphic change”; in data set [4] (Acetone/20-25° C./7 days), “No polymorphic change”; in data set [4] (Ethanol, 96%/20-25° C./1 day) it was “No polymorphic change”; in data set [4] (Ethanol, 96%/20-25° C./7 days), “No polymorphic change”; in data set [4] (Ethyl acetate/20-25° C./1 day), “No polymorphic change”. Besides, the “XRPD after Slurry” value in data set [4] (Water/20-25° C./7 days) was “No polymorphic change”. The “XRPD after slurry experiments” value in data set [4] is on record as “no change in the starting material”.

For the compound `CCCCCC(=O)N[C@@H](Cc1ccc(OP(=O)(O)O)cc1)C(=O)N[C@H](C(=O)NCCCCCC(N)=O)[C@@H](C)CC` [Fosgonimeton form 1, [4-[(2S)-3-[[(2S,3S)-1-[(6-amino-6-oxohexyl)amino]-3-methyl-1-oxopentan-2-yl]amino]-2-(hexanoylamino)-3-oxopropyl]phenyl]dihydrogen phosphate] (Hexanoyl-[pY]-Ile-[Ahx]-NH2), the “XRPD after Pressure” value in data set [2] is “no polymorphic conversion; also recorded: No polymorphic change”. Besides, the “XRPD after Heating” value in data set [3] was “no polymorphic conversion; also recorded: No polymorphic change”. In addition, the “XRPD after Slurry” value in data set [4] (2-Propanol/20-25° C./1 day) is “No polymorphic change”; in data set [4] (Acetone/20-25° C./1 day), “No polymorphic change”; in data set [4] (Ethanol, 96%/20-25° C./1 day), “No polymorphic change”; in data set [4] (Ethyl acetate/20-25° C./1 day), “No polymorphic change”.

Consider `CCCCCC(=O)N[C@@H](Cc1ccc(OP(=O)(O)O)cc1)C(=O)N[C@H](C(=O)NCCCCCC(N)=O)[C@@H](C)CC` [Fosgonimeton mono sodium salt form N5, Fosgonimeton mono sodium salt] (Hexanoyl-[pY]-Ile-[Ahx]-NH2), for which the “XRPD after Sauna” value in data set [1] (2-Propanol/20-25° C./7 days) was “No polymorphic change”; in data set [1] (Ethanol, 96%/20-25° C./7 days), “No polymorphic change”; in data set [1] (Ethyl acetate/20-25° C./7 days), “No polymorphic change”. The “XRPD after sauna experiments” value in data set [1] was “no change in the starting material”. Besides, in data set [2] (mono sodium salt), the “XRPD after Pressure” value was “no polymorphic conversion; also recorded: No polymorphic change”. Besides, in data set [3] (mono sodium salt), the “XRPD after Heating” value was “no polymorphic conversion”. Further, the “XRPD after Slurry” value in data set [4] (2-Propanol/20-25° C./1 day), in data set [4] (Acetone/20-25° C./7 days) and in data set [4] (Ethyl acetate/20-25° C./1 day) was “No polymorphic change” throughout. The “XRPD after slurry experiments” value in data set [4] is listed as “no change in the starting material”.

These data come from patent US20260234183A1, “SOLID STATE FORMS OF FOSGONIMETON AND SALTS THEREOF” (ASSIA CHEMICAL INDUSTRIES LTD., priority 2023, published 2026).
